Consider 16 compounds from patent US20090215778A1, “Alpha-substituted Arylmethyl Piperazine Pyrazolo [1,5-alpha]Pyrimidine Amide Derivatives” (priority 2007, published 2009).

Experiment [1] has as its system HIV-1, NL4-3 strain. Briefly: Virus infection assay (virus entry and single-cycle infection). The format is cell-based. Particulars: Human immunodeficiency virus 1, NL43, TZM-b1, read-out: Nl4. On the procedure:
TZM-b1 indicator cells were propagated in Dulbecco's Modified Eagle's Medium (DMEM) containing 10% fetal bovine serum (FBS, heat-inactivated) and supplemented with gentamicin (50 ug/mL).
This assay determines the effects of compounds on virus entry and single-cycle infection of cells. In this assay, virus (HIV-1, NL4-3 strain) is added to indicator cells expressing the CD4 receptor and both the CXCR4 and CCR5 co-receptor. The cells contain both a lac Z and a luciferase reporter gene under control of the viral LTR transcription promoter. The cells and virus are incubated together in the presence of various concentrations of test compounds. Successful infection of the cells by the virus permits activation of the reporter gene by the viral Tat transcription factor. The resulting beta-galactosidase or luciferase activity is quantitated using a chemiluminescent substrate and a luminescent plate reader.
Specifically, one day prior to infection, 1.5×10^4 TZM-b1 indicator cells were added to each well of a 96-well microtiter plate. On the day of the experiment, virus (MOI 0.01) in 50 μL of medium (Dulbecco's Modified Eagle's Medium) supplemented with DEAE-dextran at a final concentration of 80 μg/mL was added to cells along with various concentrations of test compound in 50 μL of Dulbecco's Modified Eagle's Medium. Control wells had virus alone. Following a 4 hr incubation at 37° C., complete media [DMEM supplemented with 10% fetal bovine serum (FBS, heat-inactivated) and gentamicin (50 ug/mL)] was added. One day post-infection the level of virus infection was quantitated by detection of β-galactosidase expression using the Gal-Screen system (Applied Biosystems).

Experiment [2] concerns the target T1, HIV Env six-helix bundle (6HB) structure (Human immunodeficiency virus type 1 group M subtype B, UniProt P04579).
T1 construct: H9 cells chronically infected with HIV-1 (H9/HIV-1RF); endogenous in cells; host or cells: H9 cells chronically infected with HIV-1 strain RF (Env is made from the virus in the infected cells, not by transfection)
Briefly: Six-helix bundle (6HB) assay. It counts as cell-based, HIV-1 (strain RF). On the procedure: 3×10^6H9 cells were incubated with 1 mL of HIV-1 (strain RF) supplemented with 40 μg/mL of DEAE-dextran. Virus and cells were incubated together at 37° C. for 2-4 hours with sporadic shaking to resuspend cells. 10 mL of media (RPMI 1640 containing 10% fetal bovine serum and supplemented with 50 μg/mL gentamicin) was then added and the virus-cell coculture was incubated at 37° C. in a humidified 5% CO2 incubator. 3 days post-infection and every 2-3 days thereafter, the infected H9/HIV-1RF cells were centrifuged, the supernatant was removed, and the cells were resuspended at a density of 0.3×10^6 cells/mL in media (RPMI 1640 containing 10% fetal bovine serum and supplemented with 50 μg/mL gentamicin). Chronically infected H9/HIV-1RF cells were used in experiments starting 12-15 days after infection and up to 40 days post-infection.
This assay determines the effect of compounds on conformational changes in HIV envelope glycoprotein (Env) that are required in order for Env to mediate the fusion of the viral and cellular membranes during virus entry and infection. Specifically, this assay measures the effect of compounds on the formation of the HIV Env six-helix bundle (6HB) structure.
H9 cells chronically infected with HIV-1 (H9/HIV-1RF) were resuspended in Stain/Wash Buffer (1% bovine serum albumin, 0.1% sodium azide in phosphate-buffered saline) and aliquoted at 2.5×10^5 cells per well into 96-well V-bottom plates containing various concentrations of test compounds. Cells and compounds were incubated for 30 minutes at 37° C. Recombinant soluble CD4 (sCD4) was then added to a final concentration of 1 μg/mL. Negative control wells contained no sCD4 and no test compound. Positive control wells contained sCD4 but no test compound. The plate was incubated for 1 hour at 37° C. to allow the sCD4 to bind to HIV Env and induce conformational changes in the Env protein. Antibody that is specific for the HIV Env six-helix bundle conformation was then added (1 μL polyclonal rabbit serum per well), and the plate was incubated for an additional 1 hour at 37° C. to permit antibody binding. The cells were then washed once with Stain/Wash Buffer to remove compound and excess antibody. The cells were resuspended in Stain/Wash Buffer containing PE-labeled anti-rabbit secondary antibody (KPL) at 0.25 μg per well. The cells were incubated for 45 min at 4° C. to permit secondary antibody binding. Fluorescence was detected using a BD FACSArray™ bioanalyzer. Compounds that inhibited Env conformational changes were identified as those that decreased primary antibody binding to the six-helix bundle epitope resulting in a decrease in fluorescence signal.

pIC50: −log10 of the molar value.

T1 sequence (P04579 32-519): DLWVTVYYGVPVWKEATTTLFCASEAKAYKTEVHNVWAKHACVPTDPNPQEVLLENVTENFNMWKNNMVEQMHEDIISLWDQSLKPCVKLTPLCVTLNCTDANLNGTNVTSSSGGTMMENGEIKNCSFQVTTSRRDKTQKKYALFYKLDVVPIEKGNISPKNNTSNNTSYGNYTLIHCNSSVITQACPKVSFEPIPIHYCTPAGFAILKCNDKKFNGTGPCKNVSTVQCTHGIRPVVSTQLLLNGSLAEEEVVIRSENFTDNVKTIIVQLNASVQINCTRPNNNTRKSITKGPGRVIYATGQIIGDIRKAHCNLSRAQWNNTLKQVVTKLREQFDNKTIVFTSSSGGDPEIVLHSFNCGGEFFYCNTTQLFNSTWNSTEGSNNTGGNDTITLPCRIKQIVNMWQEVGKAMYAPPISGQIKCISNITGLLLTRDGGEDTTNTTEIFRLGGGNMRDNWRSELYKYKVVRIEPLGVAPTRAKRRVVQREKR
T1 sequence (P04579 520-865): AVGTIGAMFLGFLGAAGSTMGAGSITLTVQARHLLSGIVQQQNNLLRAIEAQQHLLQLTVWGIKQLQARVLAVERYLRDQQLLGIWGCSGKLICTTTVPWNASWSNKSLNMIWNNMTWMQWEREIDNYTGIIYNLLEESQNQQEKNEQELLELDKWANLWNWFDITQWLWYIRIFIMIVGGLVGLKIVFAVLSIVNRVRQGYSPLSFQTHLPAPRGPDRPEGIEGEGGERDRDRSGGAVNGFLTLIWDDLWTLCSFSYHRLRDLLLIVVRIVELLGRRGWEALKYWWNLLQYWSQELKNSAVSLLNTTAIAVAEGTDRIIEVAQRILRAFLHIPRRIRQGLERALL

On to `COc1ccc(-c2nc3c(C(=O)N4CCN(C(CO)c5cccc(OC)c5F)C[C@H]4C)cnn3c(C(F)(F)F)c2C)cc1` (stereo partly drawn) [methanone, [(2R)-4-[1-(2-fluoro-3-methoxyphenyl)-2-hydroxyethyl]-2-methyl-1-piperazinyl][5-(4-methoxyphenyl)-6-methyl-7-(trifluoromethyl)pyrazolo[1,5-α]pyrimidin-3-yl]-], for which the pIC50 in experiment [1] and in experiment [2] was greater than 6.00 in each case.

`COc1ccc(-c2nc3c(C(=O)N4CCN([C@@H](C)c5nccs5)C[C@H]4C)cnn3c(C(F)(F)F)c2C)cc1` [methanone, [5-(4-methoxyphenyl)-6-methyl-7-(trifluoromethyl)pyrazolo[1,5-α]pyrimidin-3-yl][(2R)-2-methyl-4-[(1S)-1-(2-thiazolyl)ethyl]-1-piperazinyl]-]: the pIC50 in experiment [1] and in experiment [2] was greater than 6.00 in each case.

On to `COc1ccc(-c2nc3c(C(=O)N4CCN([C@H](CO)c5ccccc5F)C[C@H]4C)cnn3c(C(F)(F)F)c2C)cc1` [methanone, [(2R)-4-[(1S)-1-(2-fluorophenyl)-2-hydroxyethyl]-2-methyl-1-piperazinyl][5-(4-methoxyphenyl)-6-methyl-7-(trifluoromethyl)pyrazolo[1,5-α]pyrimidin-3-yl]-], for which the pIC50 in experiment [1] and in experiment [2] was greater than 6.00 each time.

For `COc1ccc(-c2nc3c(C(=O)N4CCN(C(CO)c5ccccc5N)C[C@H]4C)cnn3c(C(F)(F)F)c2C)cc1` (stereo partly drawn) [methanone, [(2R)-4-[1-(2-aminophenyl)-2-hydroxyethyl]-2-methyl-1-piperazinyl][5-(4-methoxyphenyl)-6-methyl-7-(trifluoromethyl)pyrazolo[1,5-α]pyrimidin-3-yl]-], the pIC50 in experiment [1] and in experiment [2] was 5.00 to 5.96 each time.

On to `COc1ccc(-c2nc3c(C(=O)N4CCN(C(CO)c5cccc(C(F)(F)F)c5)C[C@H]4C)cnn3c(C(F)(F)F)c2C)cc1` (stereo partly drawn) [methanone, [(2R)-4-[2-hydroxy-1-[3-(trifluoromethyl)phenyl]ethyl]-2-methyl-1-piperazinyl][5-(4-methoxyphenyl)-6-methyl-7-(trifluoromethyl)pyrazolo[1,5-α]pyrimidin-3-yl]-], for which the pIC50 in experiment [1] was 5.00 to 5.96; in experiment [2] it was greater than 6.00.

On to `COc1ccc(-c2nc3c(C(=O)N4CCN([C@@H](C)c5cccc(NC(N)=O)c5)C[C@H]4C)cnn3c(C(F)(F)F)c2C)cc1` [urea, N-[3-[(1S)-1-[(3R)-4-[[5-(4-methoxyphenyl)-6-methyl-7-(trifluoromethyl)pyrazolo[1,5-α]pyrimidin-3-yl]carbonyl]-3-methyl-1-piperazinyl]ethyl]phenyl]-], for which the pIC50 in experiment [1] and in experiment [2] was greater than 6.00 each time.

Consider `COc1ccc(-c2nc3c(C(=O)N4CCN(C(CO)c5ccccc5OC(F)(F)F)C[C@H]4C)cnn3c(C(F)(F)F)c2C)cc1` (stereo partly drawn) [methanone, [(2R)-4-[2-hydroxy-1-[2-(trifluoromethoxy)phenyl]ethyl]-2-methyl-1-piperazinyl][5-(4-methoxyphenyl)-6-methyl-7-(trifluoromethyl)pyrazolo[1,5-α]pyrimidin-3-yl]-], for which the pIC50 in experiment [1] and in experiment [2] was 5.00 to 5.96 throughout.

`COc1ccc(-c2nc3c(C(=O)N4CCN(C(CO)c5ccc(OC)nc5)C[C@H]4C)cnn3c(C(F)(F)F)c2C)cc1` (stereo partly drawn) [methanone, [(2R)-4-[2-hydroxy-1-(6-methoxy-3-pyridinyl)ethyl]-2-methyl-1-piperazinyl][5-(4-methoxyphenyl)-6-methyl-7-(trifluoromethyl)pyrazolo[1,5-α]pyrimidin-3-yl]-]: the pIC50 in experiment [1] and in experiment [2] was greater than 6.00 in each case.

Turning to `COc1ccc(-c2nc3c(C(=O)N4CCN([C@H](CO)c5cccnc5OC)C[C@H]4C)cnn3c(C(F)(F)F)c2C)cc1` [methanone, [(2R)-4-[(1S)-2-hydroxy-1-(2-methoxy-3-pyridinyl)ethyl]-2-methyl-1-piperazinyl][5-(4-methoxyphenyl)-6-methyl-7-(trifluoromethyl)pyrazolo[1,5-α]pyrimidin-3-yl]-], the pIC50 in experiment [1] and in experiment [2] was 5.00 to 5.96 in each case.

As for `COc1ccc(-c2nc3c(C(=O)N4CCN(C(C(=O)O)c5ccccc5)C[C@H]4C)cnn3c(C(F)(F)F)c2C)cc1` (stereo partly drawn) [1-piperazineacetic acid, 4-[[5-(4-methoxyphenyl)-6-methyl-7-(trifluoromethyl)pyrazolo[1,5-α]pyrimidin-3-yl]carbonyl]-3-methyl-α-phenyl-, (3R)-], the pIC50 in experiment [1] and in experiment [2] was less than 5.00 in each case.

For `COc1ccc(-c2nc3c(C(=O)N4CCN([C@@H](C)c5ccncc5)C[C@H]4C)cnn3c(C(F)(F)F)c2C)cc1` [methanone, [5-(4-methoxyphenyl)-6-methyl-7-(trifluoromethyl)pyrazolo[1,5-α]pyrimidin-3-yl][(2R)-2-methyl-4-[(1S)-1-(4-pyridinyl)ethyl]-1-piperazinyl]-], the pIC50 in experiment [1] and in experiment [2] was greater than 6.00 throughout.

On to `COc1ccc(-c2nc3c(C(=O)N4CCN([C@@H](C)c5ccc(NC(C)=O)cc5)C[C@H]4C)cnn3c(C(F)(F)F)c2C)cc1` [acetamide, N-[4-[(1S)-1-[(3R)-4-[[5-(4-methoxyphenyl)-6-methyl-7-(trifluoromethyl)pyrazolo[1,5-α]pyrimidin-3-yl]carbonyl]-3-methyl-1-piperazinyl]ethyl]phenyl]-], for which the pIC50 in experiment [1] is 5.00 to 5.96; in experiment [2] it was less than 5.00.

As for `COc1ccc(-c2nc3c(C(=O)N4CCN(C(CO)c5ccccc5Cl)C[C@H]4C)cnn3c(C(F)(F)F)c2C)cc1` (stereo partly drawn) [methanone, [(2R)-4-[1-(2-chlorophenyl)-2-hydroxyethyl]-2-methyl-1-piperazinyl][5-(4-methoxyphenyl)-6-methyl-7-(trifluoromethyl)pyrazolo[1,5-α]pyrimidin-3-yl]-], the pIC50 in experiment [1] and in experiment [2] was greater than 6.00 throughout.

As for `COc1ccc(-c2nc3c(C(=O)N4CCN([C@@H](C)c5ccc(F)c(F)c5)C[C@H]4C)cnn3c(C(F)(F)F)c2C)cc1` [methanone, [(2R)-4-[(1S)-1-(3,4-difluorophenyl)ethyl]-2-methyl-1-piperazinyl][5-(4-methoxyphenyl)-6-methyl-7-(trifluoromethyl)pyrazolo[1,5-α]pyrimidin-3-yl]-], the pIC50 in experiment [1] and in experiment [2] was greater than 6.00 throughout.

With `COc1ccc(-c2nc3c(C(=O)N4CCN([C@H](CO)c5ccco5)C[C@H]4C)cnn3c(C(F)(F)F)c2C)cc1` [methanone, [(2R)-4-[(1R)-1-(2-furanyl)-2-hydroxyethyl]-2-methyl-1-piperazinyl][5-(4-methoxyphenyl)-6-methyl-7-(trifluoromethyl)pyrazolo[1,5-α]pyrimidin-3-yl]-], the pIC50 in experiment [1] and in experiment [2] was greater than 6.00 in each case.

Take `CNCC(c1ccccc1)N1CCN(C(=O)c2cnn3c(C(F)(F)F)c(C)c(-c4ccc(OC)cc4)nc23)[C@H](C)C1` (stereo partly drawn) [methanone, [5-(4-methoxyphenyl)-6-methyl-7-(trifluoromethyl)pyrazolo[1,5-α]pyrimidin-3-yl][(2R)-2-methyl-4-[2-(methylamino)-1-phenylethyl]-1-piperazinyl]-]: the pIC50 in experiment [1] and in experiment [2] was greater than 6.00 throughout.
